From PMC2099433, “The binding site for neohesperidin dihydrochalcone at the human sweet taste receptor” (BMC Structural Biology, 2007) come the findings set out here.

The target of assay [1] is T1, hTAS1R2 + hTAS1R3 F778A^6.51 (Homo sapiens, UniProt Q7RTX0+Q8TE23, F778A).
T1 construct: expressed in transfected cells; host or cells: HEK293T cells stably expressing G16Gust44
T1 sequence (Q8TE23 20-839): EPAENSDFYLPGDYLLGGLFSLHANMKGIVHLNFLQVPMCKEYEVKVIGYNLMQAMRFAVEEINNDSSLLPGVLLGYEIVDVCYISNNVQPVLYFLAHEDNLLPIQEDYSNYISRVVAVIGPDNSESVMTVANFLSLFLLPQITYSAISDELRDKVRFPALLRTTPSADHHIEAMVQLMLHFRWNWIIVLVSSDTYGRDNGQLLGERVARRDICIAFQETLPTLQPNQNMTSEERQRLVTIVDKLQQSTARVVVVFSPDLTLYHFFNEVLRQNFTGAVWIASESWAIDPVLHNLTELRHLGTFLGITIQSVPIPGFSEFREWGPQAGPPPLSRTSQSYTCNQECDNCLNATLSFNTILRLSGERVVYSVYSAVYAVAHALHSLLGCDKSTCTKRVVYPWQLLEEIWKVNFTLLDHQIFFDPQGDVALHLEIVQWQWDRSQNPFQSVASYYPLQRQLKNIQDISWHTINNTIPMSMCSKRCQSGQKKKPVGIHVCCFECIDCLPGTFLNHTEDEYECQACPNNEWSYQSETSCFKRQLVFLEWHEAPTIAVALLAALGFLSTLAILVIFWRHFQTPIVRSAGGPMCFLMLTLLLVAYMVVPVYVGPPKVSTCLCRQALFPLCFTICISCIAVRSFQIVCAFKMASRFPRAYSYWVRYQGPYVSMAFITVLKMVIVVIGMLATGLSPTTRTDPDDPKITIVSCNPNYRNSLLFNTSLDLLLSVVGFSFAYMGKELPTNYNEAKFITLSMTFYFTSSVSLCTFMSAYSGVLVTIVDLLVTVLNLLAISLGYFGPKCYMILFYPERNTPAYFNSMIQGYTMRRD
T1 sequence (Q7RTX0 21-852 F778A): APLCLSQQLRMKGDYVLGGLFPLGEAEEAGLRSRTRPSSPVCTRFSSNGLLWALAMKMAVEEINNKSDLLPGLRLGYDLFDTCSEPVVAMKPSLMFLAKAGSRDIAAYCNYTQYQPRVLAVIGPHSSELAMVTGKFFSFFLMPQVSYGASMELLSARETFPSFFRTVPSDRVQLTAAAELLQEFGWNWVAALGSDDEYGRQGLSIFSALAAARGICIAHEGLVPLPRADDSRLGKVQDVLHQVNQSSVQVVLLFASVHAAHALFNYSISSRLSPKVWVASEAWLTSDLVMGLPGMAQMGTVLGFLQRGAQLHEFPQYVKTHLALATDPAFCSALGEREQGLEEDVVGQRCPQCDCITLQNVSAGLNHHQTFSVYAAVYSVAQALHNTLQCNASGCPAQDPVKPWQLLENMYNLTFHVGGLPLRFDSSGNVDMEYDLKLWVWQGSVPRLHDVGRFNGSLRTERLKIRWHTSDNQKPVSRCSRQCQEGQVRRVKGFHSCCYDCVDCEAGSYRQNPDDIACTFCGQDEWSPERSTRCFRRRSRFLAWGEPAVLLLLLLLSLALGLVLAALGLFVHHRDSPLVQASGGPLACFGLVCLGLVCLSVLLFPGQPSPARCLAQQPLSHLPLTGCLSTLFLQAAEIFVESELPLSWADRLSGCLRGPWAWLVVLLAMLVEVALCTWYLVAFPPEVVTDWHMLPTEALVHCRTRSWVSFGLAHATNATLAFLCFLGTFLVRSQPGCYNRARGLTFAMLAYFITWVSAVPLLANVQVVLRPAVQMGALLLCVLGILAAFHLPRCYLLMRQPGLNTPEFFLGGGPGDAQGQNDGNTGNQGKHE
The experiment in a line: Calcium response (FLIPR), hTAS1R3 mutant coexpressed with hTAS1R2. The class given is cell-based. Particulars: variant F778A^6.51; for Emax: read-out: maximal signal (% of wt). Put shortly:
(§1)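 HEK293T cells stably expressing chimeric G16Gust44 were transiently transfected with C-terminally HSV-tagged hTAS1R2 and mutant hTAS1R3, then loaded 24 h later with Fluo4-AM for 1 h. Calcium mobilization after sweet-tastant application was read by FLIPR, mock-corrected and expressed as ΔF/F.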

Assay [2] concerns the target T2, hTAS1R2 + hTAS1R3 S620A^2.57 (Homo sapiens, UniProt Q7RTX0+Q8TE23, S620A).
T2 construct: expressed in transfected cells; host or cells: HEK293T cells stably expressing G16Gust44
T2 sequence (Q8TE23 20-839): T1 sequence (Q8TE23 20-839)
T2 sequence (Q7RTX0 21-852 S620A): T1 sequence (Q7RTX0 21-852 F778A) with S600A, A758F
The description is as above. The assay is classed as cell-based. Particulars: variant S620A^2.57; for Emax: read-out: maximal signal (% of wt). A digest of the protocol:
as §1

SMILES strings stand for the structures. Numbering of substitutions follows the chain as printed. Where a SMILES comes first, the peptide text is derived from it.

Regarding `COc1ccc(CCC(=O)c2c(O)cc(O[C@@H]3O[C@H](CO)[C@@H](O)[C@H](O)[C@H]3O[C@@H]3O[C@@H](C)[C@H](O)[C@@H](O)[C@H]3O)cc2O)cc1O` [NHDC, neohesperidin dihydrochalcone], in assay [1], the EC50 (commonly the concentration at which the effect is half-maximal) was found to be 1500 ± 400 µM and the Emax was 50 ± 18%. In addition, in assay [2], the EC50 came to 1300 ± 500 µM and the Emax amounted to 55 ± 80%.

With `COC(=O)[C@H](Cc1ccccc1)NC(=O)[C@@H](N)CC(=O)O` [aspartame] (HELM PEPTIDE1{D.F.[CO[*:1]]}$$$$V2.0), in assay [1], the EC50 is 1200 ± 100 µM and the Emax came out at 80 ± 80%. For the same compound, in assay [2], the EC50 amounted to 1200 ± 300 µM and the Emax stood at 64 ± 4%.
